Reference: article PMC10671431, “New Derivatives of N-Hydroxybutanamide: Preparation, MMP Inhibition, Cytotoxicity, and Antitumor Activity” (International Journal of Molecular Sciences, 2023)

Assays:
[1] = Cytotoxicity, MTT test, statements on all cell lines studied; type: cell-based; settings: human, African green monkey, 72 h of exposure, summary over cell lines, read-out: cytotoxicity IC50, cells in general
Experimental: (§1) Cell culture. A-172 (human glioblastoma cells), HepG2 (human hepatocellular carcinoma cells), M-HeLa (human cervical adenocarcinoma cells, M subclone), Vero (African green monkey kidney epithelial cells), and FetMSC (human embryonic mesenchymal stem cells) were purchased from the Russian Collection of Cell Cultures of Vertebrates (Institute of Cytology RAS, St. Petersburg, Russia). The U-251 MG cell line (human glioblastoma-astrocytoma) was purchased from the European Collection of Authenticated Cell Cultures (Salisbury, UK). All cells were grown at 37 °C in an atmosphere of 5% CO2. A-172 and Vero cells were cultured in DMEM medium (PanEco, Moscow, Russia). HepG2, HeLa, and U-251 MG cells were cultured in EMEM medium (PanEco). FetMSC cells were cultured in F12/DMEM medium (PanEco). All incubation media were supplemented with 10% fetal calf serum (BioWest, Nuaillé, France), 50 U/mL penicillin, and […] streptomycin (PanEco). Additionally, media for HeLa, HepG2, and U-251 MG cells were supplemented with 2 mM glutamine (PanEco) and 1% essential amino acids (PanEco), media for A-172 and Vero cells were supplemented with 4 mM glutamine, and the medium for FetMSC cells was supplemented with 3 mM glutamine. The medium for U-251 MG cells was additionally supplemented with 1 mM sodium pyruvate (PanEco).
(§2) Cytotoxicity studies. The cytotoxicity of the compounds was assessed using the MTT test. Cells were seeded into 96-well plates at varying concentrations of 5 × 10^4 cells/mL (A-172, Vero and HeLa), 7 × 10^4 cells/mL (HepG2 and U-251 MG), and 10 × 10^4 cells/mL (FetMSC). The studied compounds were added to the incubation medium 24 h after seeding at concentrations ranging from 7.8 μM to 500 μM. All compounds were dissolved in DMSO and diluted with the incubation medium to their final concentrations just before use. The incubation medium in wells was aspirated and replaced with medium containing the studied compounds. The final concentration of DMSO in all samples was 0.1%. Control samples were treated with 0.1% DMSO. After 72 h of exposure, 3-(4,5-dimethylthiazol-2-yl)-2,5-diphenyl-2H-tetrazolium bromide (MTT) (Dia-M, Moscow, Russia) was added to the incubation medium at a concentration of 0.5 mg/mL. The resulting MTT-formazan crystals were dissolved in DMSO. The optical density was measured at 570 nm with a background wavelength of 620 nm using a Spark 10M plate reader. IC50 values were determined using a median effect analysis from the dose–effect relationships.

FetMSC = test: Cytotoxicity, MTT test; type: cell-based, human; settings: Homo sapiens; 72 h of exposure, MTT
Experimental: as §1, §2

A-172 = test: Cytotoxicity, MTT test; type: cell-based, human; settings: Homo sapiens, A 172, 72 h of exposure
Experimental: as §1, §2

HeLa = test: Cytotoxicity, MTT test; type: cell-based, human; settings: Homo sapiens, HeLa, 72 h of exposure
Experimental: as §1, §2

HepG2 = test: Cytotoxicity, MTT test; type: cell-based, human; settings: Homo sapiens, HepG2, 72 h of exposure
Experimental: as §1, §2

U-251 MG = test: Cytotoxicity, MTT test; type: cell-based; settings: Homo sapiens, 72 h of exposure
Experimental: as §1, §2

MMP-3 = molecular target: T1, MMP-3 (Homo sapiens, UniProt P08254); test: MMP activity assay, fluorogenic substrate (MMP Inhibitor Profiling Kit); type: biochemical; settings: read-out: MMP-inhibiting activity IC50, MMP-3
T1 construct: the BML- prefix points to Enzo Life Sciences, own knowledge BML-AK308
T1 sequence (P08254 100-272 limits assumed): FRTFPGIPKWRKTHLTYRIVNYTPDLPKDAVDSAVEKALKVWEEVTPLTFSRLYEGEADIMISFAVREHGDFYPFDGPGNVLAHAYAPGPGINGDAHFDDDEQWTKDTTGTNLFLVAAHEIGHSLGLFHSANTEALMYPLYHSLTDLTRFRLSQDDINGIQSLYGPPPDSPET
Experimental: (§3) Determination of MMP activity. A fluorescently labeled substrate probe containing a fluorescent label and a fluorescence quencher, was utilized for this study. […] Enzyme activity was assessed using the MMP Inhibitor Profiling Kit (Product # BML-AK308, New York, NY, USA) according to the manufacturer’s recommendations. The nonspecific inhibitor NNGH was used as a positive control. The fluorescence of the fluorogenic substrate OmniMMP^TM RED was measured at wavelengths Ex/Em = 545/576 nm using a Spark 10M multimode plate reader (Tecan, Zurich, Switzerland). Reaction rates were expressed in relative fluorescence units (RFUs) per minute. The activity of MMPs in the presence of the studied compounds was determined as follows:Activity, % = (Vinh/Vcont) × 100,(1) where V is the initial reaction rate (RFUs/min) in the presence (Vinh) and absence (Vcont) of the studied compounds.
(§4) All tested compounds were dissolved in DMSO. The final concentration of DMSO in all samples was 0.1%. Control samples were treated with 0.1% DMSO.

MMP-2 = molecular target: T2, MMP-2 (Homo sapiens, UniProt P08253); test: as above; type: biochemical; settings: read-out: MMP-inhibiting activity IC50, MMP-2
T2 construct: the BML- prefix points to Enzo Life Sciences, own knowledge BML-AK308
T2 sequence (P08253 110-446 limits assumed): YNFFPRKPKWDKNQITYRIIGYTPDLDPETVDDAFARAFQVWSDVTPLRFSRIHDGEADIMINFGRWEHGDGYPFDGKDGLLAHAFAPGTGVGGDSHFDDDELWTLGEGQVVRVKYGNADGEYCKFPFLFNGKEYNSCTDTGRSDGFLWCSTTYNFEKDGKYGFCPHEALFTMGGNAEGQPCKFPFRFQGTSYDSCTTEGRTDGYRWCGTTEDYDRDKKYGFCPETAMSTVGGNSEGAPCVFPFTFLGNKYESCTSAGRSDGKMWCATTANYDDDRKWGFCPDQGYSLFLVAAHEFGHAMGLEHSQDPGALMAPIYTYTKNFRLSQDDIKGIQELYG
Experimental: as §3, §4

MMP-9 = molecular target: T3, MMP-9 (Homo sapiens, UniProt P14780); test: as above; type: biochemical; settings: read-out: MMP-inhibiting activity IC50, MMP-9
T3 construct: the BML- prefix points to Enzo Life Sciences, own knowledge BML-AK308
T3 sequence (P14780 107-444 limits assumed): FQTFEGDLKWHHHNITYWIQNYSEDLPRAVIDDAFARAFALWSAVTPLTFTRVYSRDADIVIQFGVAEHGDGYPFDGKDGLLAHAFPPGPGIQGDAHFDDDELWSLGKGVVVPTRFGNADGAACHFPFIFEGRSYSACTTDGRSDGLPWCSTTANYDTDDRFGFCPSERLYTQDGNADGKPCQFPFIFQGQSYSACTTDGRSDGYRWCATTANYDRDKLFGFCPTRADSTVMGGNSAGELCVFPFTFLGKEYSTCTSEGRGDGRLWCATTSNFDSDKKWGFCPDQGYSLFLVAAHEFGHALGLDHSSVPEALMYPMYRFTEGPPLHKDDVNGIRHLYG
Experimental: as §3, §4

MMP-14 = molecular target: T4, MMP-14 (Homo sapiens, UniProt P50281); test: as above; type: biochemical; settings: read-out: MMP-inhibiting activity IC50, MMP-14
T4 construct: the BML- prefix points to Enzo Life Sciences, own knowledge BML-AK308
Experimental: as §3, §4

Vero = test: Cytotoxicity, MTT test; type: cell-based, African green monkey; settings: Chlorocebus sabaeus, Vero, 72 h of exposure
Experimental: as §1, §2

[2] = test system: pancreatic carcinoma cells CD18; set-up: method as in PMID 24022491; settings: 5 μM, 24 h of exposure; cited from earlier work
[3] = test system: pancreatic carcinoma cells MiaPaCa2; set-up: method as in PMID 24022491; settings: 5 μM, 24 h of exposure; cited from earlier work
[4] = test system: CAC-1 cells (human cervical adenocarcinoma); set-up: method as in PMID 11925127; settings: 72 h of exposure, cited from earlier work
[5] = test system: hamster pancreatic cancer cell line PGHAM-1; set-up: method as in PMID 11291083; settings: 72 h of exposure, cited from earlier work
[6] = test system: mouse breast carcinoma cells 4T1; set-up: method as in PMID 31637006; settings: concentrations up to 50 μg/mL (150.87 μM), 48 h of exposure; cited from earlier work
[7] = test system: hamster peritoneal macrophages; settings: 72 h of exposure; cited from earlier work
[8] = test system: human hepatocellular carcinoma cells HepG2; set-up: method as in doi:10.17265/1934-7375/2015.06.002; settings: 72 h of exposure, cited from earlier work
[9] = test system: human histiocytic lymphoma cells U-937; set-up: method as in doi:10.17265/1934-7375/2015.06.002; settings: 72 h of exposure, cited from earlier work
human glioma U-251 cells = test system: human glioma U-251 cells; set-up: method as in PMID 10048980; settings: 10 μM, 96 h of exposure; cited from earlier work
[10] = test system: human breast carcinoma cells MDA-MB-435; set-up: method as in PMID 31637006; settings: concentrations up to 50 μg/mL (150.87 μM), 48 h of exposure; cited from earlier work
[11] = test system: co-cultured neonatal rat ventricular fibroblasts and myocytes; set-up: method as in PMID 19365278; settings: 24 h of exposure; cited from earlier work
gelatinase A (MMP-2) = molecular target: gelatinase A (MMP-2); set-up: method as in earlier work; settings: read-out: IC50 for gelatinase A (MMP-2) inhibition; cited from earlier work

SMILES: COc1ccccc1C(=O)NNC(=O)CCC(=O)NO [Compound 5, N-hydroxy-4-[2-(2-methoxybenzoyl)hydrazinyl]-4-oxobutanamide]
- IC50 at 72 h [1]: > 100 µM
- IC50 (FetMSC): > 500 µM
- IC50 (A-172): > 500 µM
- IC50 (HeLa): 194 ± 13.4 µM
- IC50 (HepG2): 221 ± 12.6 µM
- IC50 (U-251 MG): > 500 µM
- IC50 (MMP-3): > 10 µM
- IC50 (MMP-2): > 10 µM
- IC50 (MMP-9): > 10 µM
- IC50 (MMP-14): > 10 µM
- IC50 (Vero): > 500 µM

SMILES: CNC(=O)[C@@H](NC(=O)[C@H](CCCc1ccccc1)[C@H](C)N(O)C=O)C(C)(C)C [GI254023X]
- toxicity to cells [2]: toxic
- toxicity to cells [3]: toxic

SMILES: O=C(O)[C@@H](Cc1c[nH]c2ccccc12)NS(=O)(=O)c1ccc(-c2nnn(-c3ccccc3)n2)cc1 [MMI-166]
- cytotoxicity IC50 [4]: higher than 50 μg/mL
- IC50 ([4]; read-out: cytotoxicity IC50): > 102 µM
- cytotoxicity IC50 [5]: higher than 100 μg/mL
- IC50 ([5]; read-out: cytotoxicity IC50): > 205 µM

SMILES: CNC(=O)[C@@H](NC(=O)[C@H](CC(C)C)[C@H](O)C(=O)NO)C(C)(C)C [Marimastat]
- effect on cells [6]: no effect
- cytotoxicity IC50 [7]: higher than 200 μg/mL
- cytotoxicity IC50 [8]: higher than 200 μg/mL
- IC50 ([8]; read-out: cytotoxicity IC50): > 603 µM
- cytotoxicity IC50 [9]: 10.8 µg/mL
- IC50 ([9]; read-out: cytotoxicity IC50): 32.6 µM
- reduction in cell viability (human glioma U-251 cells): 20–40%
- effect on cells [10]: no effect

SMILES: CC(C)[C@H](NS(=O)(=O)c1ccc(-c2ccc(Br)cc2)cc1)C(=O)O [PD166793]
- concentrations toxic to cells [11]: above 100 μM

SMILES: C=C[C@H]1C[C@@H](C)C[C@@H](C)[C@@H]1c1c(O)ccn(O)c1=O [pyridoxatin]
- IC50 (gelatinase A (MMP-2)): 15.2 µM
